Experimental data: article PMC10056986 (Pharmaceuticals, 2023)
Values joined by “and” are separate entries in the source; they are usually repeats but may differ in a detail not shown here. Identical values can stand only once. Like-named read-outs stand apart in the source and are kept apart here.

Assays:
in vitro [1] = conditions: African green monkey
D2 = D2 (Homo sapiens, UniProt P14416); experiment: cell-based
PKA = PKA (Homo sapiens, UniProt P17612); experiment: biochemical
MST4 = MST4 (Homo sapiens, UniProt Q9P289); experiment: biochemical
TNIK = TNIK (Homo sapiens, UniProt Q9UKE5); experiment: biochemical
CB1 [2] = target: T1, CB1 (Homo sapiens, UniProt P21554); experiment: cell-based
T1 sequence (P21554 whole entry): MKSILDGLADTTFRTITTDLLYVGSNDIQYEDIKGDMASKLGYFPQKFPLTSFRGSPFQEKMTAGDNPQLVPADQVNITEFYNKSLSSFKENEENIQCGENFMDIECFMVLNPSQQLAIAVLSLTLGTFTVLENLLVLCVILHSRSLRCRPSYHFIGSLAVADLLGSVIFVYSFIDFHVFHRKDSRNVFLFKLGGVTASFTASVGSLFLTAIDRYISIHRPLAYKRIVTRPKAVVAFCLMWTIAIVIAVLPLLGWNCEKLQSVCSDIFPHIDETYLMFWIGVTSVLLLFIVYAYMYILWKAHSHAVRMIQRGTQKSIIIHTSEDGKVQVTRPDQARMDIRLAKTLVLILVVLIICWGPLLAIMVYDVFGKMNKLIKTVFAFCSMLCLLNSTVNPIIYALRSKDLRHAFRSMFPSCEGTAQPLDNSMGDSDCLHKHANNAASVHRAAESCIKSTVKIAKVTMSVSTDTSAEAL

in vitro [3] = conditions: human
[4] = tested on: Influenza virus A/Mal/302/54 (H1N1); experiment: microbe, parasite or virus in culture; type: cell-based; conditions: H1N1, MDCK, read-out: EC50 (mean ± SD)
22 GPCR targets = type: cell-based, human; conditions: read-out: IC50 (antagonist screening)
D1 = D1 (Homo sapiens, UniProt P21728); experiment: cell-based
D1, sequence (P21728 whole entry): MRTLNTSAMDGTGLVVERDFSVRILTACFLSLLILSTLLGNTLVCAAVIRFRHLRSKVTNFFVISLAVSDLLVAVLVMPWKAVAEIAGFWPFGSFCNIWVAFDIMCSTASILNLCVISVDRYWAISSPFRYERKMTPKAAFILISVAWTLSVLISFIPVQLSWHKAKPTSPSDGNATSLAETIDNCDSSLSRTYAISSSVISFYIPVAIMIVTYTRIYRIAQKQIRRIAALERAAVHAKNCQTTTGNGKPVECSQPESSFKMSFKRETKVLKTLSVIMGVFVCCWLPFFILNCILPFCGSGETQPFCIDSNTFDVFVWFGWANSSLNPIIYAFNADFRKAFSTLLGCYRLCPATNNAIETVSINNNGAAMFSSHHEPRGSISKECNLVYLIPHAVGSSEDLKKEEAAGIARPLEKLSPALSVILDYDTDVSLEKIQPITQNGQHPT

TAOK2 = TAOK2 (Homo sapiens, UniProt Q9UL54); experiment: biochemical
JAK2 = JAK2 (Homo sapiens, UniProt O60674); experiment: biochemical
hERG potassium channel = hERG potassium channel (Homo sapiens, UniProt Q12809); experiment: cell-based
hERG potassium channel, sequence (Q12809 whole entry): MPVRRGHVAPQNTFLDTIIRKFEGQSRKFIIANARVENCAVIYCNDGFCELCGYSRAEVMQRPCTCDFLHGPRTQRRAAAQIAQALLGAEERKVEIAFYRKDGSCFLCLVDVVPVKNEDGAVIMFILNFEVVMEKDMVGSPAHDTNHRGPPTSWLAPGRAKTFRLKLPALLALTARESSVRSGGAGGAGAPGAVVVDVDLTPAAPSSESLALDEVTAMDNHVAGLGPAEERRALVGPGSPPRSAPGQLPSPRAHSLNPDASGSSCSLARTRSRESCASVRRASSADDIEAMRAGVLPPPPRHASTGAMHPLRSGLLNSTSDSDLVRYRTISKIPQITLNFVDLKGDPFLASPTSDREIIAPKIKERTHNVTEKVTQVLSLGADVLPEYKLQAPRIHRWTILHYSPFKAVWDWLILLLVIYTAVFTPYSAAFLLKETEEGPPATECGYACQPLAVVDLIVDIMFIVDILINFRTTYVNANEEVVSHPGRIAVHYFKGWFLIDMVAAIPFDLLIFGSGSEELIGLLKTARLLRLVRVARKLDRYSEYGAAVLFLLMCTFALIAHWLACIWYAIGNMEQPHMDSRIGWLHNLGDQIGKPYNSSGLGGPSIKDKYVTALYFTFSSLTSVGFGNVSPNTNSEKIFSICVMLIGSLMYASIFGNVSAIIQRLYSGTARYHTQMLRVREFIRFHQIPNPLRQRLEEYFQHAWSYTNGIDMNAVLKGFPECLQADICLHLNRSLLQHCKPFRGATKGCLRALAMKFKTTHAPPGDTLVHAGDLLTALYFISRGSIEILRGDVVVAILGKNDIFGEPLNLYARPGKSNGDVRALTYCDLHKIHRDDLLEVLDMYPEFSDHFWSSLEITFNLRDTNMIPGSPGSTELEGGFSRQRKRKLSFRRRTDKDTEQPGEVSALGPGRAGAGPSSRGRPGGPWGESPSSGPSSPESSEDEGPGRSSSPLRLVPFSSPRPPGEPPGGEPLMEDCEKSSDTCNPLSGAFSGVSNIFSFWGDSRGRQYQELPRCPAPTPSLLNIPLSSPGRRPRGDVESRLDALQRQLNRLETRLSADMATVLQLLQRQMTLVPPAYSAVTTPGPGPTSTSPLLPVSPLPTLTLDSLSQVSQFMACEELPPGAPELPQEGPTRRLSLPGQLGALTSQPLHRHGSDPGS

M1 [5] = target: T2, M1 (Homo sapiens, UniProt P11229); experiment: cell-based
T2 sequence (P11229 whole entry): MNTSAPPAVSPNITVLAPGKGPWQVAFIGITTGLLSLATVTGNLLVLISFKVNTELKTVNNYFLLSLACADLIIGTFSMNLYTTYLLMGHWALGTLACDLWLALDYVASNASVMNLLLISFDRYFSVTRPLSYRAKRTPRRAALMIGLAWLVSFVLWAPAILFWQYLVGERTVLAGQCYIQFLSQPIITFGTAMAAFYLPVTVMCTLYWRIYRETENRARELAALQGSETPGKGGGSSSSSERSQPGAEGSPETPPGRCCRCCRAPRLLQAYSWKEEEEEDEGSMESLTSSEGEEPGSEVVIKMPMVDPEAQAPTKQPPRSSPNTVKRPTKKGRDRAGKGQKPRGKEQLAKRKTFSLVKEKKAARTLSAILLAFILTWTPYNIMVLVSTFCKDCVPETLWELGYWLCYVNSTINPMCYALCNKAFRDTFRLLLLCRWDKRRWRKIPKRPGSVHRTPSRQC

M1 [6] = target: T2, M1; experiment: cell-based; remark: listed apart in the source
Beta2 [7] = target: T3, Beta2 (Homo sapiens, UniProt P07550); experiment: cell-based
T3 sequence (P07550 whole entry): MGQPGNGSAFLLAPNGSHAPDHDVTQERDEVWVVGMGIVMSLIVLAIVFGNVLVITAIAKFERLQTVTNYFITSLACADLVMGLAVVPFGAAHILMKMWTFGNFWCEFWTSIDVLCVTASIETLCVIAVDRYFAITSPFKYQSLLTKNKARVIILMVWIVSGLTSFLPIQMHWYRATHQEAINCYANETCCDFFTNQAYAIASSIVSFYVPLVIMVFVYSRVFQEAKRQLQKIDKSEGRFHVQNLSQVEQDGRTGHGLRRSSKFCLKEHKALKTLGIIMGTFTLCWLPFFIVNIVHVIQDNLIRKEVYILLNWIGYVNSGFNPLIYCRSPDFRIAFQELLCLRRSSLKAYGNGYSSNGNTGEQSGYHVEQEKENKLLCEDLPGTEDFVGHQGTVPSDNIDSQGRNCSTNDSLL

op-kappa = op-kappa (Homo sapiens, UniProt P41145); experiment: cell-based
op-kappa, sequence (P41145 whole entry): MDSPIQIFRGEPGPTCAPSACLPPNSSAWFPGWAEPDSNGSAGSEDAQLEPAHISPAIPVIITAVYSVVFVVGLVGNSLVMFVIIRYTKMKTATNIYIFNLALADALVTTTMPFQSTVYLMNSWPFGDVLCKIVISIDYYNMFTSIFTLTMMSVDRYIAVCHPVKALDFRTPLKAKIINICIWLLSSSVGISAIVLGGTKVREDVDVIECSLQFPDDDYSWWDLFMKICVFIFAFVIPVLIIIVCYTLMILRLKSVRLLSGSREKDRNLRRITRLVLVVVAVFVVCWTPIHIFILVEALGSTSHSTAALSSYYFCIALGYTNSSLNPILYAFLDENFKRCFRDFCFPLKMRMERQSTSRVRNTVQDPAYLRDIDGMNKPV

CAMK2 alpha = CAMK2 alpha (Homo sapiens, UniProt Q9UQM7); experiment: biochemical
in vivo [8] = conditions: both, SD, rat; for AUC(0-t): AUC0-last
CB1 [9] = target: T1, CB1; experiment: cell-based; remark: listed apart in the source
AD2 [10] = type: cell-based, human
AD2 [11] = type: cell-based, human; remark: listed apart in the source
[12] = tested on: influenza A virus WSN/33 (H1N1); design: species or system BALB/c mice; conditions: mouse, in vivo
DYRK3 = DYRK3 (Homo sapiens, UniProt O43781); experiment: biochemical
Beta2 [13] = target: T3, Beta2; experiment: cell-based; remark: listed apart in the source
in vivo [14] = conditions: both, beagle, dog
[15] = tested on: A/Qingyuan/GIRD01/2017 (H7N9); experiment: microbe, parasite or virus in culture; type: cell-based, avian influenza virus; conditions: Influenza A virus, H7N9, MDCK, read-out: IC50 (mean ± SD)
A/Anhui/01/2013 (H7N9) = experiment: microbe, parasite or virus in culture; type: cell-based, avian influenza virus; conditions: Influenza A virus, H7N9, MDCK, read-out: IC50 (mean ± SD)
5HT1A = 5HT1A (Homo sapiens, UniProt P08908); experiment: cell-based
5HT1A, sequence (P08908 whole entry): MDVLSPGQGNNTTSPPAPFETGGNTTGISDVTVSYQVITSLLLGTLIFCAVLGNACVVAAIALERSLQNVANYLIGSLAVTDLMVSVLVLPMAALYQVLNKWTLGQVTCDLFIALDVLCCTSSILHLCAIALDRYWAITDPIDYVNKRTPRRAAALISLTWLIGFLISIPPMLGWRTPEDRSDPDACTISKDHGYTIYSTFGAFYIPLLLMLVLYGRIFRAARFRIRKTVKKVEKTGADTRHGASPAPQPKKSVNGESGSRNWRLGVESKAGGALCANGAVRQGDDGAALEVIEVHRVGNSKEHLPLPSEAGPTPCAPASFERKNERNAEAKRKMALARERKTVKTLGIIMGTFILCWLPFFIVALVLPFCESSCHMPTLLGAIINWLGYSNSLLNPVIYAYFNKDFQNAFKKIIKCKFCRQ

CK1 alpha = CK1 alpha (Homo sapiens, UniProt P48729); experiment: biochemical
CK1 alpha, sequence (P48729 whole entry): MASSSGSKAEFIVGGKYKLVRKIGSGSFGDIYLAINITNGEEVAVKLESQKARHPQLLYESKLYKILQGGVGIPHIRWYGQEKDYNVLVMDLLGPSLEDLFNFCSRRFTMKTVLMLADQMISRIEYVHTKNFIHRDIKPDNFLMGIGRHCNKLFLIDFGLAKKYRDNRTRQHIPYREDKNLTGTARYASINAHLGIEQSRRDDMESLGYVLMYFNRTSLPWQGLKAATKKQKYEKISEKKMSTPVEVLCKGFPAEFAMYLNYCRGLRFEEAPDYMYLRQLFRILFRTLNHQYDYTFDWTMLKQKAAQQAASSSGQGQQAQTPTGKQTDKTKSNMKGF

MAPKAPK2 = MAPKAPK2 (Homo sapiens, UniProt P49137); experiment: biochemical
[16] = tested on: influenza A virus WSN/33 (H1N1); design: species or system BALB/c mice; conditions: mouse, in vivo; remark: listed apart in the source
M2 = M2 (Homo sapiens, UniProt P08172); experiment: cell-based
M2, sequence (P08172 whole entry): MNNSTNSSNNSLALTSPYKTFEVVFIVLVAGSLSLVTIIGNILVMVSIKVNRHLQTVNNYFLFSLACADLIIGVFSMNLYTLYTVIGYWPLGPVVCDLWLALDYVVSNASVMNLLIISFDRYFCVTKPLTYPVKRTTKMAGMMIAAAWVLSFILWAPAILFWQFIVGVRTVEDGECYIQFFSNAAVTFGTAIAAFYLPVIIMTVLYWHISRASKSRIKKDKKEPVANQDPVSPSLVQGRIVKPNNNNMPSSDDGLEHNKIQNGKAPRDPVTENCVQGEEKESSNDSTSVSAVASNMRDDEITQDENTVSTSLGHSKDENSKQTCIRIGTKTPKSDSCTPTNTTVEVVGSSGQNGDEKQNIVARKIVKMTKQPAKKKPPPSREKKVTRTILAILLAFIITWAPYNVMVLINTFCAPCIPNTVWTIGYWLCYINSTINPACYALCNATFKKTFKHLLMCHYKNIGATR

[17] = tested on: Influenza virus A/WS/33 (H1N1); experiment: microbe, parasite or virus in culture; type: cell-based; conditions: H1N1, MDCK, read-out: EC50 (mean ± SD)
SRC = SRC (Homo sapiens, UniProt P12931); experiment: biochemical
[18] = 10,000 nM, read-out: Inhibition at Maximum Concentration (%)

D2, sequence (P14416 whole entry): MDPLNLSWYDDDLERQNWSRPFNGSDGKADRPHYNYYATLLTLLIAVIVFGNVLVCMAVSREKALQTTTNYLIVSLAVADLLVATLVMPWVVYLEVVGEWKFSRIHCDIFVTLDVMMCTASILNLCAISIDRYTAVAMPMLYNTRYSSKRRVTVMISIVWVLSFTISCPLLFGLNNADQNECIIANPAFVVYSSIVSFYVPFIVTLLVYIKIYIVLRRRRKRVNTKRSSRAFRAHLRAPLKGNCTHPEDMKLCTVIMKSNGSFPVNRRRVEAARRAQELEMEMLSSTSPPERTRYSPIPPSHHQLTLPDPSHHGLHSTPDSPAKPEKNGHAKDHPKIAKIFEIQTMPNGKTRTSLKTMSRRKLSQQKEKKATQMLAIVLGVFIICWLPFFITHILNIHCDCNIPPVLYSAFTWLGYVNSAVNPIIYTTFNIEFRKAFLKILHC

## O=C(O)[C@H]1C2CCC(CC2)[C@@H]1Nc1nc(-c2n[nH]c3ncc(F)cc23)nc(C2CC2)c1F [ZSP1273]
In vitro [1]
  CC50: > 10 µM
D2
  EC50: > 12 µM
D2; 12,000 nM
  Activity at Maximum Concentration (%): −0.06%
PKA
  IC50: > 10 µM
MST4
  IC50: > 10 µM
TNIK
  IC50: > 10 µM
CB1 [2]
  EC50: > 12 µM
CB1 [2]; 12,000 nM
  Activity at Maximum Concentration (%): −12.1%
In vitro [3]
  CC50: > 10 µM
[4]
  EC50: 0.028 ± 0.011 nM
22 GPCR targets
  IC50: > 10 µM
D1
  IC50: > 10 µM
D1; [18]
  inhibition at 10 µM: -16.7%
TAOK2
  IC50: > 10 µM
JAK2
  IC50: > 10 µM
hERG potassium channel
  IC50: > 40 µM
M1 [5]
  EC50: > 12 µM
M1 [5]; 12,000 nM
  Activity at Maximum Concentration (%): −3.22%
M1 [6]
  IC50: > 10 µM
M1 [6]; [18]
  inhibition at 10 µM: -0.95%
Beta2 [7]
  IC50: > 10 µM
Beta2 [7]; [18]
  inhibition at 10 µM: -33.2%
op-kappa
  IC50: > 10 µM
op-kappa; [18]
  inhibition at 10 µM: -27.8%
CAMK2 alpha
  IC50: > 10 µM
In vivo [8]; iv, 3 mg/kg
  Vd: 0.508 ± 0.241 L/kg
  clearance: 12.9 ± 2.23 mL/min/kg
  half-life: 127 ± 87.6 min
  AUC(0-t): 3950 ± 773 ng·h/mL
In vivo [8]; po, 3 mg/kg
  bioavailability: 22.8%
  AUC(0-t): 899 ± 213 ng·h/mL
  Cmax: 661 ± 304 ng/mL
In vivo [8]; po, 15 mg/kg
  AUC(0-t): 12100 ng·h/mL
  Cmax: 5680 ± 2470 ng/mL
In vivo [8]; po, 75 mg/kg
  AUC(0-t): 77700 ng·h/mL
  Cmax: 17200 ng/mL
CB1 [9]
  IC50: > 10 µM
CB1 [9]; [18]
  inhibition at 10 µM: -77.2%
AD2 [10]
  IC50: > 10 µM
AD2 [10]; 10,000 nM
  Inhibition at Maximum Concentration (%): 43.84%
AD2 [11]
  EC50: > 12 µM
AD2 [11]; 12,000 nM
  Activity at Maximum Concentration (%): 3.38%
[12]
  day on which mice began to regain body weight: 4 days and 5 days
[12]; 3 mg/kg
  decrease of viral load in lung tissues vs vehicle: 2.37 log10
[12]; 10 mg/kg
  decrease of viral load in lung tissues vs vehicle: 3.1 log10 and 4.18 log10
[12]; 30 mg/kg
  decrease of viral load in lung tissues vs vehicle: 4.97 log10
  viral titer in lung tissues: < 2.0 log10
DYRK3
  IC50: > 10 µM
Beta2 [13]
  EC50: > 12 µM
Beta2 [13]; 12,000 nM
  Activity at Maximum Concentration (%): 1.43%
In vivo [14]; iv, 1 mg/kg
  AUC(0-t): 791 ± 329 ng·h/mL
  Vd: 0.47 ± 0.0848 L/kg
  clearance: 25.8 ± 7.6 mL/min/kg
  half-life: 27.4 ± 10.1 min
In vivo [14]; po, 1 mg/kg
  AUC(0-t): 211 ± 62.4 ng·h/mL
  Cmax: 292 ± 78.2 ng/mL
  Tmax: 27.5 ± 6.12 min
  bioavailability: 26.7%
In vivo [14]; po, 5 mg/kg
  AUC(0-t): 1210 ± 641 ng·h/mL
  Cmax: 1450 ± 800 ng/mL
  Tmax: 32.5 ± 14.8 min
In vivo [14]; po, 15 mg/kg
  AUC(0-t): 5030 ± 1960 ng·h/mL
  Cmax: 5800 ± 2150 ng/mL
  Tmax: 27.5 ± 17.5 min
[15]
  IC50: 0.777 ± 0.427 nM
A/Anhui/01/2013 (H7N9)
  IC50: 0.627 ± 0.312 nM
5HT1A
  EC50: > 12 µM
5HT1A; 12,000 nM
  Activity at Maximum Concentration (%): 16.98%
CK1 alpha
  IC50: > 10 µM
MAPKAPK2
  IC50: > 10 µM
[16]
  body weight of mice: did not significantly reduce the body weight
  survival rate vs vehicle: could improve the survival rate
  time of death relative to vehicle group: died later than those in the vehicle group
M2
  IC50: > 10 µM
M2; [18]
  inhibition at 10 µM: -55.7%
[17]
  EC50: 0.032 ± 0.01 nM
SRC
  IC50: > 10 µM
